System: blood DHT
Experiment: concentration of blood DHT in mice after oral administration, measured by ELISA
Format: in vivo
Details: male C57BL/6 mice, oral finasteride 100 μg/mouse/day for 3 weeks, FIG. 4
Description: To confirm the inhibition effect of hardy kiwi extract on the concentration of blood DHT, the water extract and ethanol extract of fruit of Actinidia arguta were administrated into mice and the concentration of blood DHT were determined by following procedure;
Male C57BL/6 mice, aged 6 weeks (Seoul national university animal experimental center) were acclimated to the environment for 1 week. After 1 week, 16 mice were divided into 4 groups and each group was orally administered with 100 μl of the water extract of fruit of Actinidia arguta (1500 μg/mouse/day), 100 μl of the ethanol extract of fruit of Actinidia arguta (1500 μg/mouse/day), 100 μl of finasteride (100 μg/mouse/day), and 100 μl of drinking water (100 μg/mouse/day) for 3 weeks, respectively. After mice were sacrificed and the blood serum and spleen organ were colllected therefrom, the concentration of blood DHT was measured by ELISA (IBL-Hamburg GmbH) method. […]
After 1 week, 8 mice were divided into 2 groups and each group was orally administered with 100 μl of the water extract of dried stem of A. arguta (1500 μg/mouse/day) and 100 μl of drinking water (100 μg/mouse/day) for 3 weeks, respectively. After mice were sacrificed and the blood serum and spleen organ was colllected therefrom, the concentration of blood DHT was measured.

CC(C)(C)NC(=O)[C@H]1CC[C@H]2[C@@H]3CC[C@H]4NC(=O)C=C[C@]4(C)[C@H]3CC[C@]12C [finasteride]
decrease of concentration of blood DHT: about 90%

— patent US8394426B2, “Composition comprising an extract of hardy kiwi for preventing or treating baldness disorders or seborrheic skin disorders” (Viromed Co., Ltd., priority 2004, dated 2013)
